In patent publication US7776833B2, “Use of cyclic bioisosters of purine system derivatives for treating diseases produced by disorders of niterergic and dopaminergic systems” (priority 2003, dated 2010):

Key:
Format in all cases: in vivo, Wistar rats
[1] = tested on: apomorphine-dependent erection; assay: Apomorphine-dependent erection in low-potency rats; settings: compound 5 x 10 mg/kg intraperitoneally every 48 hours + apomorphine 0.1 mg/kg subcutaneously; 20 minutes monitoring; one value for the two compounds of the line
Source text: One of the mechanisms regulating the sexual function of mammals is associated with functioning of the dopaminergic system of the brain. It is well known that a non-selective D1/D2 agonist apomorphine in low doses causes penile erection in rodents (Giuliano F., Allard J. Dopamine and male sexual function. Eur. Urol., 2001, 40 (6), 601-608; Giuliano F., Allard J., Rampin O. et. al. Pro-erectile effect of systemic apomorphine: existence of a spinal site action. J. Urol., 2002, 167 (1), 402-406; Brien S. E., Smallegange C., Gofton W. T., et. al. Development of a rat model of sexual performance anxiety: effect of behavioral and pharmacological hyperadrenergic stimulation on apomorphine-induced erections. Int. J. Impot. Res., 2002, 14 (2), 107-115.). In this connection, we have studied the effects of the compounds according to the invention on apomorphine-dependent erection in rats.
Nine groups of adult male Wistar rats weighing 350-450 g maintained at the normal (not inverted) light cycle were used in the experiments. To study the effect of the compounds on the sexual function, low-potency animals with a single erection were selected. Control group No. 1 (n=7) was composed of animals not injected with the compounds according to the invention. The animals of groups Nos. 2-9 (n=7) were injected with one of the compounds according to the invention selected from the group of compounds 2, 8, 9, 15, 19, 25, 31, 36, intraperitoneally in a course of 5 injections at a dose of 10 mg/kg with an interval between the injections 48 hours. Apomorphine was dissolved in 0.1% aqueous solution of ascorbic acid and then was injected to all animal subcutaneously at a dose of 0.1 mg/kg during 24-28 hours after the last injection of the compounds according to the invention. The monitoring of sexual activity was made individually for each animal immediately after the administration of apomorphine; the monitoring time was 20 minutes. The following indices were registered: the time of beginning of the first erection, time intervals between the erections, the number of erections for the entire period of observation.
The statistical analysis of the results was made using T-test and ξ-square test. The results are given in Table 3 as means±standard error of means.

[2] = tested on: nitrites and nitrates (NOx-); assay: Measurement of nitrates/nitrites (NOx-) in brain regions after the morphine abstinence experiment; settings: 3 x 20 mg/kg intramuscularly
Method in brief: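 Rat brain regions homogenized in 20 mM HEPES pH 7.5 at 4 °C; deproteinized supernatants treated with nitrate reductase, 25 μM NADPH, 25 μM FAD (37 °C, 30 min), then DAN in acid; naphthotriazole fluorescence (ex 365/em 405 nm) against sodium nitrate standard, expressed as nmol/mg protein (Bradford).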

[3] = tested on: nitric oxide synthase (NOS); assay: Nitric oxide synthase activity in brain regions, radiometric [3H]L-citrulline method; settings: 3 x 20 mg/kg intramuscularly
Method in brief: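 Rat cortex, hippocampus, mesencephalon, striatum, brainstem, hypothalamus and cerebellum were homogenized in 20 mM HEPES pH 7.5, and the 11000 g supernatant was incubated 15-60 min at 37 °C with [3H]L-arginine, 0.2 mM CaCl2, FAD, FMN, NADPH and BH4. [3H]L-citrulline was counted after Dowex removal of arginine. Ca2+-dependent/independent activity was split using EDTA ± L-NAME, per mg Bradford protein.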

[4] = tested on: physical dependence from morphine (morphine abstinence); assay: Morphine abstinence syndrome, signs scored in the open field test; settings: Morphine − (morphine + compound); compound 3 x 20 mg/kg intramuscularly; one value for the three compounds
[5] = Groups Nos. 3-14, compound without morphine, one value for all 12 compounds
[6] = Morphine + compound, one value for the three compounds

## Nc1ccnc2c(=O)n([C@@H]3O[C@H](CO)[C@@H](O)[C@H]3O)[nH]c(=O)c12.[Na] [Compound 2, sodium salt of 4-amino-7-(β-D-ribofuranosile)pyrido[2,3-d]-6H-pyridazine-5,8-dione]
[1]
  Latent period of first erection: 5.21 ± 0.30 min
  Number of erection for the entire period of observation: 3.13 ± 0.35
  Time between 1st and 2nd erections: 3.94 ± 0.60 min
  Time between 3rd and 2nd erections: 5.52 ± 1.14 min

## O=c1[nH][nH]c(=O)c2ncccc12.[K] [Compound 8, potassium salt of pyrido [2,3-d]-6H-pyridazine-5,8-dione]
[1]
  Latent period of first erection: 5.21 ± 0.30 min
  Number of erection for the entire period of observation: 3.13 ± 0.35
  Time between 1st and 2nd erections: 3.94 ± 0.60 min
  Time between 3rd and 2nd erections: 5.52 ± 1.14 min

## O=c1[nH]n([C@@H]2O[C@H](CO)[C@@H](O)[C@H]2O)c(=O)c2ccccc12.[Na] [Compound 9, sodium salt of 2-(β-D-ribofuranosile)benzo[d]-3H-pyridazine-1,4-dione]
[1]
  Latent period of first erection: 5.09 ± 0.27 min
  Number of erection for the entire period of observation: 3.24 ± 0.39
  Time between 1st and 2nd erections: 3.87 ± 0.59 min
  Time between 3rd and 2nd erections: 5.19 ± 0.78 min

## Nc1cccc2c(=O)[nH][nH]c(=O)c12.[Na] [Compound 15, sodium salt of 5-amino-benzo[d]-3H-pyridazine-1,4-dione]
[1]
  Latent period of first erection: 5.09 ± 0.27 min
  Number of erection for the entire period of observation: 3.24 ± 0.39
  Time between 1st and 2nd erections: 3.87 ± 0.59 min
  Time between 3rd and 2nd erections: 5.19 ± 0.78 min

## O=c1[nH]n([C@@H]2O[C@H](CO)[C@@H](O)[C@H]2O)c(=O)c2nccnc12.[Na] [Compound 19, sodium salt of 7-(β-D-ribofuranosile)pyrazino[2,3-d]-6H-pyridazine-5,8-dione]
[1]
  Latent period of first erection: 5.24 ± 0.19 min
  Number of erection for the entire period of observation: 3.29 ± 0.27
  Time between 1st and 2nd erections: 3.75 ± 0.64 min
  Time between 3rd and 2nd erections: 5.12 ± 0.87 min

## O=c1[nH][nH]c(=O)c2nccnc12.[Li] [Compound 25, lithium salt of pyrazino[2,3-d]-6H-pyridazine-5,8-dione]
[1]
  Latent period of first erection: 5.24 ± 0.19 min
  Number of erection for the entire period of observation: 3.29 ± 0.27
  Time between 1st and 2nd erections: 3.75 ± 0.64 min
  Time between 3rd and 2nd erections: 5.12 ± 0.87 min

## Nc1ncnc2c(=O)n([C@@H]3O[C@H](CO)[C@@H](O)[C@H]3O)[nH]c(=O)c12.[Na] [Compound 31, sodium salt of 4-amino-7-(β-D-ribofuranosile)pyrimido[4,5-d]-6H-pyridazine-5,8-dione]
[1]
  Latent period of first erection: 5.12 ± 0.24 min
  Number of erection for the entire period of observation: 3.32 ± 0.31
  Time between 1st and 2nd erections: 3.34 ± 0.69 min
  Time between 3rd and 2nd erections: 5.02 ± 1.01 min

## O=c1[nH][nH]c(=O)c2ncncc12.[Li] [Compound 35, lithium salt of pyrimido[4,5-d]-6H-pyridazine-5,8-dione]
[2]; [5]
  Nitrites, brainstem: 6.31 ± 0.58 nmol/mg of protein
  Nitrites, cerebellum: 6.66 ± 0.63 nmol/mg of protein
  Nitrites, cerebral cortex: 4.31 ± 0.37 nmol/mg of protein
  Nitrites, hippocampus: 6.47 ± 0.72 nmol/mg of protein
  Nitrites, hypothalamus: 6.77 ± 0.83 nmol/mg of protein
  Nitrites, midbrain: 6.65 ± 0.70 nmol/mg of protein
  Nitrites, striatum: 6.11 ± 0.29 nmol/mg of protein
[2]; [6]
  Nitrites, brainstem: 6.87 ± 0.81 nmol/mg of protein
  Nitrites, cerebellum: 5.93 ± 0.54 nmol/mg of protein
  Nitrites, cerebral cortex: 4.84 ± 0.31 nmol/mg of protein
  Nitrites, hippocampus: 5.31 ± 0.33 nmol/mg of protein
  Nitrites, hypothalamus: 6.77 ± 0.46 nmol/mg of protein
  Nitrites, midbrain: 5.95 ± 0.52 nmol/mg of protein
  Nitrites, striatum: 3.57 ± 0.42 nmol/mg of protein
[3]; [5]
  Activity of NOS, hippocampus: 3.09 ± 0.16 nmol/min/mg of protein
  Activity of NOS, hypothalamus: 5.45 ± 0.24 nmol/min/mg of protein
  Activity of NOS, midbrain: 2.60 ± 0.29 nmol/min/mg of protein
  Activity of NOS, striatum: 1.26 ± 0.08 nmol/min/mg of protein
[3]; [6]
  Activity of NOS, hippocampus: 2.65 ± 0.15 nmol/min/mg of protein
  Activity of NOS, hypothalamus: 5.56 ± 0.34 nmol/min/mg of protein
  Activity of NOS, midbrain: 1.89 ± 0.27 nmol/min/mg of protein
  Activity of NOS, striatum: 1.34 ± 0.09 nmol/min/mg of protein
[4]
  Authentic differences (ξ-square criterion) in appearance of signs of abstinence: <<Wet dog>> shakes: 1.0000
  Authentic differences (ξ-square criterion) in appearance of signs of abstinence: Aggression: 0.8456
  Authentic differences (ξ-square criterion) in appearance of signs of abstinence: Convulsions: 0.5578
  Authentic differences (ξ-square criterion) in appearance of signs of abstinence: Diarrhea: 0.0001
  Authentic differences (ξ-square criterion) in appearance of signs of abstinence: Dyspnea: 0.0685
  Authentic differences (ξ-square criterion) in appearance of signs of abstinence: Forelimb jogging: 0.9321
  Authentic differences (ξ-square criterion) in appearance of signs of abstinence: Grit with teeth: 0.7003
  Authentic differences (ξ-square criterion) in appearance of signs of abstinence: Mastication: 0.1888
  Authentic differences (ξ-square criterion) in appearance of signs of abstinence: Piloerection: 0.2345
  Authentic differences (ξ-square criterion) in appearance of signs of abstinence: Ptosis: 0.0232
  Authentic differences (ξ-square criterion) in appearance of signs of abstinence: Rhinorrhea: 0.2935
  Authentic differences (ξ-square criterion) in appearance of signs of abstinence: Squeak when touched: 0.2035

## Nc1ncc2c(=O)[nH][nH]c(=O)c2n1.[Na] [Compound 36, sodium salt of 2-amino-pyrimido[4,5-d]-6H-pyridazine-5,8-dione]
[1]
  Latent period of first erection: 5.12 ± 0.24 min
  Number of erection for the entire period of observation: 3.32 ± 0.31
  Time between 1st and 2nd erections: 3.34 ± 0.69 min
  Time between 3rd and 2nd erections: 5.02 ± 1.01 min

## O=c1[nH][nH]c(=O)c2c(Br)ncnc12.[K] [Compound 37, potassium salt of 4-bromine-pyrimido[4,5-d]-6H-pyridazine-5,8-dione]
[2]; [5]
  Nitrites, brainstem: 6.31 ± 0.58 nmol/mg of protein
  Nitrites, cerebellum: 6.66 ± 0.63 nmol/mg of protein
  Nitrites, cerebral cortex: 4.31 ± 0.37 nmol/mg of protein
  Nitrites, hippocampus: 6.47 ± 0.72 nmol/mg of protein
  Nitrites, hypothalamus: 6.77 ± 0.83 nmol/mg of protein
  Nitrites, midbrain: 6.65 ± 0.70 nmol/mg of protein
  Nitrites, striatum: 6.11 ± 0.29 nmol/mg of protein
[2]; [6]
  Nitrites, brainstem: 6.87 ± 0.81 nmol/mg of protein
  Nitrites, cerebellum: 5.93 ± 0.54 nmol/mg of protein
  Nitrites, cerebral cortex: 4.84 ± 0.31 nmol/mg of protein
  Nitrites, hippocampus: 5.31 ± 0.33 nmol/mg of protein
  Nitrites, hypothalamus: 6.77 ± 0.46 nmol/mg of protein
  Nitrites, midbrain: 5.95 ± 0.52 nmol/mg of protein
  Nitrites, striatum: 3.57 ± 0.42 nmol/mg of protein
[3]; [5]
  Activity of NOS, hippocampus: 3.09 ± 0.16 nmol/min/mg of protein
  Activity of NOS, hypothalamus: 5.45 ± 0.24 nmol/min/mg of protein
  Activity of NOS, midbrain: 2.60 ± 0.29 nmol/min/mg of protein
  Activity of NOS, striatum: 1.26 ± 0.08 nmol/min/mg of protein
[3]; [6]
  Activity of NOS, hippocampus: 2.65 ± 0.15 nmol/min/mg of protein
  Activity of NOS, hypothalamus: 5.56 ± 0.34 nmol/min/mg of protein
  Activity of NOS, midbrain: 1.89 ± 0.27 nmol/min/mg of protein
  Activity of NOS, striatum: 1.34 ± 0.09 nmol/min/mg of protein
[4]
  Authentic differences (ξ-square criterion) in appearance of signs of abstinence: <<Wet dog>> shakes: 1.0000
  Authentic differences (ξ-square criterion) in appearance of signs of abstinence: Aggression: 0.8456
  Authentic differences (ξ-square criterion) in appearance of signs of abstinence: Convulsions: 0.5578
  Authentic differences (ξ-square criterion) in appearance of signs of abstinence: Diarrhea: 0.0001
  Authentic differences (ξ-square criterion) in appearance of signs of abstinence: Dyspnea: 0.0685
  Authentic differences (ξ-square criterion) in appearance of signs of abstinence: Forelimb jogging: 0.9321
  Authentic differences (ξ-square criterion) in appearance of signs of abstinence: Grit with teeth: 0.7003
  Authentic differences (ξ-square criterion) in appearance of signs of abstinence: Mastication: 0.1888
  Authentic differences (ξ-square criterion) in appearance of signs of abstinence: Piloerection: 0.2345
  Authentic differences (ξ-square criterion) in appearance of signs of abstinence: Ptosis: 0.0232
  Authentic differences (ξ-square criterion) in appearance of signs of abstinence: Rhinorrhea: 0.2935
  Authentic differences (ξ-square criterion) in appearance of signs of abstinence: Squeak when touched: 0.2035
